Test results from US9540392B2, “Thienopyrimidines” (BAYER PHARMA AKTIENGESELLSCHAFT, priority 2012, dated 2017).

Columns and labels:
human full-length MKNK1 [1] = biological target: T1, human full-length MKNK1 (Homo sapiens, UniProt Q9BUB5, T385D); assay: MKNK1 kinase assay (TR-FRET); type: biochemical; conditions: 10 μM ATP
T1 construct: GST (N); purchased Carna Biosciences 02-145; host or cells: insect cells (baculovirus expression system)
From the text: MKNK1-inhibitory activity of compounds of the present invention was quantified employing the MKNK1 TR-FRET assay as described in the following paragraphs.
A recombinant fusion protein of Glutathione-S-Transferase (GST, N-terminally) and human full-length MKNK1 (amino acids 1-424 and T344D of accession number BAA 19885.1), expressed in insect cells using baculovirus expression system and purified via glutathione sepharose affinity chromatography, was purchased from Carna Biosciences (product no 02-145) and used as enzyme. As substrate for the kinase reaction the biotinylated peptide biotin-Ahx-IKKRKLTRRKSLKG (C-terminus in amide form) was used which can be purchased e.g. form the company Biosyntan (Berlin-Buch, Germany).
For the assay 50 nL of a 100 fold concentrated solution of the test compound in DMSO was pipetted into a black low volume 384 well microtiter plate (Greiner Bio-One, Frickenhausen, Germany), 2 μL of a solution of MKNK1 in aqueous assay buffer [50 mM HEPES pH 7.5, 5 mM MgCl2, 1.0 mM dithiothreitol, 0.005% (v/v) Nonidet-P40 (Sigma)] was added and the mixture was incubated for 15 min at 22° C. to allow pre-binding of the test compounds to the enzyme before the start of the kinase reaction. Then the kinase reaction was started by the addition of 3 μL of a solution of adenosine-tri-phosphate (ATP, 16.7 μM=>final conc. in the 5 μL assay volume is 10 μM) and substrate (0.1 μM=>final conc. in the 5 μL assay volume is 0.06 μM) in assay buffer and the resulting mixture was incubated for a reaction time of 45 min at 22° C. The concentration of MKNK1 was adjusted depending of the activity of the enzyme lot and was chosen appropriate to have the assay in the linear range, typical concentrations were in the range of 0.05 μg/mL. The reaction was stopped by the addition of 5 μL of a solution of TR-FRET detection reagents (5 nM streptavidine-XL665 [Cisbio Bioassays, Codolet, France] and 1 nM anti-ribosomal protein […] (pSer236)-antibody from Invitrogen [#44921G] and 1 nM LANCE EU-W1024 Labeled ProteinG [Perkin-Elmer, product no. AD0071]) in an aqueous EDTA-solution (100 mM EDTA, 0.1% (w/v) bovine serum albumin in 50 mM HEPES pH 7.5).
The resulting mixture was incubated for 1 h at 22° C. to allow the formation of complex between the phosphorylated biotinylated peptide and the detection reagents. Subsequently the amount of phosphorylated substrate was evaluated by measurement of the resonance energy transfer from the Eu-chelate to the streptavidine-XL. Therefore, the fluorescence emissions at 620 nm and 665 nm after excitation at 350 nm were measured in a TR-FRET reader, e.g. a Rubystar (BMG Labtechnologies, Offenburg, Germany) or a Viewlux (Perkin-Elmer). […]

human full-length MKNK1 [2] = biological target: T1, human full-length MKNK1; assay: MKNK1 kinase high ATP assay (TR-FRET); type: biochemical; conditions: 2 mM ATP, after preincubation with MKNK1; read-out: MKNK1 IC50 (MKNK1 high ATP)
Procedure, shortened: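 Compound was preincubated 15 min at 22° C. with MKNK1 in 50 mM HEPES pH 7.5, 5 mM MgCl2, 1.0 mM DTT, then the reaction ran 30 min at 22° C. with 2 mM ATP and 0.06 μM biotinylated peptide (final).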

[3] = test system: eIF4E Ser209 phosphorylation in A549 cells; assay: AlphaScreen SureFire eIF4E Ser209 phosphorylation assay in A549 cells with 20% FCS stimulation; type: cell-based; conditions: Homo sapiens, read-out: pEIF4e (IC50 of the EIF4e phosphorylation)
From the text: The AlphaScreen SureFire eIF4E Ser209 phoshorylation assay is used to measure the phosphorylation of endogenous eIF4E in cellular lysates. The AlphaScreen SureFire technology allows the detection of phosphorylated proteins in cellular lysates. In this assay, sandwich antibody complexes, which are only formed in the presence of the analyte (p-eIF4E Ser209), are captured by AlphaScreen donor and acceptor beads, bringing them into close proximity. The excitation of the donor bead provokes the release of singlet oxygen molecules that triggers a cascade of energy transfer in the Acceptor beads, resulting in the emission of light at 520-620 nm.
Surefire EIF4e Alphascreen in A549 cells with 20% FCS stimulation
For the assay the AlphaScreen SureFire p-eIF4E Ser209 10K Assay Kit and the AlphaScreen ProteinA Kit (for 10K assay points) both from Perkin Elmer were used. On day one 50.000 A549 cells were plated in a 96-well plate in 100 μL per well in growth medium (DMEM/Hams' F12 with stable Glutamin, 10% FCS) and incubated at 37° C. After attachment of the cells, medium was changed to starving medium (DMEM, 0.1% FCS, without Glucose, with Glutamin, supplemented with 5 g/L Maltose). On day two, test compounds were serially diluted in 50 μL starving medium with a final DMSO concentration of 1% and were added to A549 cells in test plates at a final concentration range from as high 10 μM to as low 10 nM depending on the activities of the tested compounds. Treated cells were incubated at 37° C. for 2 h. 37 ul FCS was added to the wells (=final FCS concentration 20%) for 20 min. Then medium was removed and cells were lysed by adding 50 μL lysis buffer. Plates were then agitated on a plate shaker for 10 min. After 10 min lysis time, 4 μL of the lysate is transferred to a 384 well plate (Proxiplate from Perkin Elmer) and 5 μL Reaction Buffer plus Activation Buffer mix containing AlphaScreen Acceptor beads was added. Plates were sealed with TopSeal-A adhesive film, gently agitated on a plate shaker for 2 hours at room temperature. Afterwards 2 μL Dilution buffer with AlphaScreen Donor beads were added under subdued light and plates were sealed again with TopSeal-A adhesive film and covered with foil. Incubation takes place for further 2 h gently agitation at room temperature. Plates were then measured in an EnVision reader (Perkin Elmer) with the AlphaScreen program. Each data point (compound dilution) was measured as triplicate.
The IC50 values were determined by means of a 4-parameter fit using the company's own software.

T1 sequence (Q9BUB5 1-424 isoform Q9BUB5-2 T344D): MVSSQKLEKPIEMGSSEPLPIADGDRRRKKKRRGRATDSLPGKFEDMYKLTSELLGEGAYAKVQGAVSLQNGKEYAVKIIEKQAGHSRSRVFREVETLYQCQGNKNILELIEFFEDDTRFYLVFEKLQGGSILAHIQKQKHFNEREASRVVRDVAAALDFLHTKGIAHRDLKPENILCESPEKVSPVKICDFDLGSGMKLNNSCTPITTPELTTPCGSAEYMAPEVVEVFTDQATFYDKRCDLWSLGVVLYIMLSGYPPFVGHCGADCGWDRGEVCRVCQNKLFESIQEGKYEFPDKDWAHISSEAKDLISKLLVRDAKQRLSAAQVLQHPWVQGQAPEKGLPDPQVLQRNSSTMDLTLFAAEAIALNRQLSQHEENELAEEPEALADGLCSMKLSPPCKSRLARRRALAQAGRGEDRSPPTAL

SMILES | IC50 (human full-length MKNK1 [1]) | IC50 (human full-length MKNK1 [2]) | IC50 [3]
CS(=O)(=O)CCCNC(=O)C1CCc2c(sc3ncnc(Nc4ccc5[nH]ncc5c4)c23)C1 (stereo not drawn) [Example 4, 4-(1H-Indazol-5-ylamino)-N-[3-(methylsulfonyl)propyl]-5,6,7,8-tetrahydro[1]benzothieno[2,3-d]pyrimidine-7-carboxamide] | 8 nM | 9 nM | –
O=C(O)C1CCc2c(sc3ncnc(Nc4ccc5[nH]ncc5c4)c23)C1 (stereo not drawn) [Example 2, 4-(1H-Indazol-5-ylamino)-5,6,7,8-tetrahydro[1]benzothieno[2,3-d]pyrimidine-7-carboxylic acid] | 8 nM | 26 nM | –
CCOC(=O)C1CCc2c(sc3ncnc(Nc4cc5cn[nH]c5cc4OC)c23)C1 (stereo not drawn) [Example 56, Ethyl 4-[(6-methoxy-1H-indazol-5-yl)amino]-5,6,7,8-tetrahydro[1]benzothieno[2,3-d]pyrimidine-7-carboxylate] | 2 nM | 2 nM | 165 nM
CCOC(=O)C1CCc2c(sc3ncnc(Nc4ccc5[nH]ncc5c4)c23)C1 (stereo not drawn) [Example 1, Ethyl 4-(1H-indazol-5-ylamino)-5,6,7,8-tetrahydro[1]benzothieno[2,3-d]pyrimidine-7-carboxylate] | 5 nM | 16 nM | –
